Data reported in US20230348444A1, “NOVEL COMPOUNDS FOR USE IN THE TREATMENT OF DISEASES ASSOCIATED WITH ANGIOTENSIN II” (Vicore Pharma AB, priority 2020, published 2023).
Like-named read-outs stand apart in the source and are kept apart here.

Key:
Format in all cases: in vitro ADME
CYP2D6 = target: T1, CYP2D6 (Homo sapiens, UniProt P10635); assay: CYP inhibition in human liver microsomes (Eurofins protocol ITEMG232); conditions: probe dextromethorphan, substrate dextromethorphan, read-out: CYP2D6 Inh %
T1 construct: tissue Eurofins ITEMG232; host or cells: human liver microsomes
Protocol: (§1) The following substrates were used; CYP1A phenacetin, CYP2B6 bupropion, CYP2C8 paclitaxel and amodiaquine, CYP2C9 diclofenac, CYP2C19 omeprazole, CYP2D6 dextromethorphan, CYP3A midazolam and testosterone.
(§2) At the end of the incubation, the formation of metabolite was monitored by HPLC-MS/MS as the peak area response.

CYP2C8 = target: T2, CYP2C8 (Homo sapiens, UniProt P10632); assay: as above; conditions: probe paclitaxel and amodiaquine, substrates paclitaxel and amodiaquine, read-out: CYP2C8 Inh %
T2 construct: using isoform-specific substrates incubated with human liver microsomes; tissue Eurofins ITEMG232; host or cells: human liver microsomes
T2 sequence (P10632 1-490): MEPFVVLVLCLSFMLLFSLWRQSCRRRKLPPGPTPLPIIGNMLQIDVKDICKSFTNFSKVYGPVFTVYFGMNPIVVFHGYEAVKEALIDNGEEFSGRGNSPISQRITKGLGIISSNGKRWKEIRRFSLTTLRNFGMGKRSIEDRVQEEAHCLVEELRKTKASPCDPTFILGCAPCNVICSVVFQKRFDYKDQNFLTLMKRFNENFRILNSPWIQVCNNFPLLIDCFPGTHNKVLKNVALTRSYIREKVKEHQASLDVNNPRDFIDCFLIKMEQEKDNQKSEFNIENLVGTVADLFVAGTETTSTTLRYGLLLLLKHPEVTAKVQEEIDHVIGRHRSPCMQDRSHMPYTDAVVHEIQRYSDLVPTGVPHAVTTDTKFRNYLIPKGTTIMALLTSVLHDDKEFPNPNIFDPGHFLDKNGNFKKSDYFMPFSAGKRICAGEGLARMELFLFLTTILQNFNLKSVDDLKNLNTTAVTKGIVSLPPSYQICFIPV
Protocol: as §1, §2

CYP1A = target: T3, CYP1A (Homo sapiens, UniProt P05177); assay: as above; conditions: probe phenacetin, substrate phenacetin, read-out: CYP1A Inh %
T3 construct: using isoform-specific substrates incubated with human liver microsomes; tissue Eurofins ITEMG232; host or cells: human liver microsomes
T3 sequence (P05177 2-516 limits assumed): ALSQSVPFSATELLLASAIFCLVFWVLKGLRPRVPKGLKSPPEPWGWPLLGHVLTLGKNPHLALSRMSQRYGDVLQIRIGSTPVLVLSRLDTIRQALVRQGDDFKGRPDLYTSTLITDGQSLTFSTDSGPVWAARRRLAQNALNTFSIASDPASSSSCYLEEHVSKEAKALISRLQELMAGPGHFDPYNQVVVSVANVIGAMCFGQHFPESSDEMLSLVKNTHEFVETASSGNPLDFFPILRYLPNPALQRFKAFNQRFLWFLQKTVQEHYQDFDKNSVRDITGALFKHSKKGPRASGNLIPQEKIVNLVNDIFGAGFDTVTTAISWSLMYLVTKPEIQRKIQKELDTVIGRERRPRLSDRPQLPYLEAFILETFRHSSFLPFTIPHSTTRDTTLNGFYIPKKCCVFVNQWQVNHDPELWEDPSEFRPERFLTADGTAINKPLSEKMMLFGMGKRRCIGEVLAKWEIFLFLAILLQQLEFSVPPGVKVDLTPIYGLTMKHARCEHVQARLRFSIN
Protocol: as §1, §2

CYP2B6 = target: T4, CYP2B6 (Homo sapiens, UniProt P20813); assay: as above; conditions: probe bupropion, substrate bupropion, read-out: CYP2B6 Inh %
T4 construct: using isoform-specific substrates incubated with human liver microsomes; tissue Eurofins ITEMG232; host or cells: human liver microsomes
T4 sequence (P20813 1-491): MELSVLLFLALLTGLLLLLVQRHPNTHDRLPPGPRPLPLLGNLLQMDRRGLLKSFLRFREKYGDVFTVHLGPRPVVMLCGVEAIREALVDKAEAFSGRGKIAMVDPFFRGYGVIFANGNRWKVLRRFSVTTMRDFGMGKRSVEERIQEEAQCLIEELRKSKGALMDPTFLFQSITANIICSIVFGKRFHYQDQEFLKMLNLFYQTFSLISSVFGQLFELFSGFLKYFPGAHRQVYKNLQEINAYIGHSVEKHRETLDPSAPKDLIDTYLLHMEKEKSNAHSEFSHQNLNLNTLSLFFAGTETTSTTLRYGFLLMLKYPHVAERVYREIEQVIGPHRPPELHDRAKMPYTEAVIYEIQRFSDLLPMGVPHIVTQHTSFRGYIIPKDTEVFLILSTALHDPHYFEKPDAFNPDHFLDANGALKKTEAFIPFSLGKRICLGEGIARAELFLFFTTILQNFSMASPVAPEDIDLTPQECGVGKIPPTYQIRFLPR
Protocol: as §1, §2

CYP2C19 = target: T5, CYP2C19 (Homo sapiens, UniProt P33261); assay: as above; conditions: probe omeprazole, substrate omeprazole, read-out: CYP2C19 Inh %
T5 construct: using isoform-specific substrates incubated with human liver microsomes; tissue Eurofins ITEMG232; host or cells: human liver microsomes
Protocol: as §1, §2

CYP3A4 = CYP3A4 (Homo sapiens, UniProt P08684); assay: CYP inhibition in human liver microsomes (Eurofins protocol ITEMG232), midazolam substrate; set-up: using isoform-specific substrates incubated with human liver microsomes; tissue Eurofins ITEMG232; host or cells: human liver microsomes; conditions: probe midazolam, read-out: CYP3A4 midazolam Inh %
Protocol: as §1, §2

CYP3A4&5 = assay: CYP inhibition in human liver microsomes (Eurofins protocol ITEMG232), testosterone substrate; conditions: probe testosterone, read-out: CYP3A4&5 testosterone Inh %
Protocol: as §1, §2

CYP2C9 = CYP2C9 (Homo sapiens, UniProt P11712); assay: CYP inhibition in human liver microsomes (Eurofins protocol ITEMG232); set-up: using isoform-specific substrates incubated with human liver microsomes; tissue Eurofins ITEMG232; host or cells: human liver microsomes; conditions: probe diclofenac, substrate diclofenac, read-out: CYP2C9 Inh %
Protocol: as §1, §2

[1] = Metabolic stability in pooled human liver microsomes with or without NADPH; conditions: human, pooled human liver microsomes, pooled human liver microsomes 0.5 mg/mL in PBS, 1 uM test compound, 37° C.
Protocol: Pooled human liver microsomes in PBS at a concentration of 0.5 mg/mL was incubated with or without 1 mM NADPH for 70 min at 37° C. Test compound was added after 10 minutes to a final concentration of 1 uM. Samples were withdrawn at 0, 5, 15 and 60 minutes and added to test tubes containing acetonitrile, to stop the reaction, and with terfenadine, used as internal standard. After centrifugation at 10000×g for 5 minutes the supernatant was diluted 1:1 with 1% formic acid. Samples were separated on a reverse phase column and detected by triple quadrupole MSMS (Agilant model 6540). The concentration of the parent compound at the different time points was measured with an external standard curve using terfenadine as internal standard and the initial metabolic rate in the presence or absence of NADPH calculated.

[2] = with 1 mM NADPH, read-out: T1/2, +NaDPH
[3] = without NADPH, read-out: T1/2, no NaDPH

T5 sequence (P33261 whole entry, canonical isoform): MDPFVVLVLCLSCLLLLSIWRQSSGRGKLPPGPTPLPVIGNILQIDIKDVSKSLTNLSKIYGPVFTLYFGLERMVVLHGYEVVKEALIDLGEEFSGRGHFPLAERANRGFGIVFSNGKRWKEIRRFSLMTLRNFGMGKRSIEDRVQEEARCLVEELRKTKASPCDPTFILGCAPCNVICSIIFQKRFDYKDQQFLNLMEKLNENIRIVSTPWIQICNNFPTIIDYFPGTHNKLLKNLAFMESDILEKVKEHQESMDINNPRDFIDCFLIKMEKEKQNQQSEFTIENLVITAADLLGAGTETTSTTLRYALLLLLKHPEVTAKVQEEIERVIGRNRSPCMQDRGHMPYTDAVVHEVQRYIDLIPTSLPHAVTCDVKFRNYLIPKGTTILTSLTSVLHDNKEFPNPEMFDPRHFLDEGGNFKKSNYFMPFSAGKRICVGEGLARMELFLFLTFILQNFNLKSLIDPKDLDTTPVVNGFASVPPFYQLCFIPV
T1 sequence (P10635 whole entry): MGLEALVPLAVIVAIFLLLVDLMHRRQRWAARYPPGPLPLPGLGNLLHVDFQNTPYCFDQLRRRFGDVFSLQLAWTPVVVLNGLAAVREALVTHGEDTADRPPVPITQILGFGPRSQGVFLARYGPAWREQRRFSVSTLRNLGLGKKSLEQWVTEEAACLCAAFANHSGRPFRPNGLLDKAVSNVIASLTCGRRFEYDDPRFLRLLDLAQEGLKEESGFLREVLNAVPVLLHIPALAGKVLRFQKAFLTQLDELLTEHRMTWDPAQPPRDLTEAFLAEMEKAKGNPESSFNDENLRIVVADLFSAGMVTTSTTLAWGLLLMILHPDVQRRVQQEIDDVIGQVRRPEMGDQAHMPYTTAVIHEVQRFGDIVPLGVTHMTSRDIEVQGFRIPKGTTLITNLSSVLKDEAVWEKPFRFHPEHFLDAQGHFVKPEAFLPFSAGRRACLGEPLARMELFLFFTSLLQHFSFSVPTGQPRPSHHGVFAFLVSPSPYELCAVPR
Chain of CYP3A4 (P08684 whole entry, canonical isoform): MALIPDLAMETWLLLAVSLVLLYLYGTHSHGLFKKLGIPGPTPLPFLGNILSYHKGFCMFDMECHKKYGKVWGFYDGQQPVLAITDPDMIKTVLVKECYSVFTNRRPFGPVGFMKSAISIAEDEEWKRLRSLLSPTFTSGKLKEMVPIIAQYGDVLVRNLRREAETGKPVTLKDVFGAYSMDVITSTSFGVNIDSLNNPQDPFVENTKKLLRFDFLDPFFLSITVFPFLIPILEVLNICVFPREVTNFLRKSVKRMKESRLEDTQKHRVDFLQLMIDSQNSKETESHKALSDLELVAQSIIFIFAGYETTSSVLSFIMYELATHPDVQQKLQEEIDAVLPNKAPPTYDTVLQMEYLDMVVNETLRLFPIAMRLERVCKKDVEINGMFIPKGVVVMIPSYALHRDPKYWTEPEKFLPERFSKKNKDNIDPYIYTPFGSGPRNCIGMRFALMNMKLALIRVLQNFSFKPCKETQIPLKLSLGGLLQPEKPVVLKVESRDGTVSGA
Chain of CYP2C9 (P11712 whole entry, canonical isoform): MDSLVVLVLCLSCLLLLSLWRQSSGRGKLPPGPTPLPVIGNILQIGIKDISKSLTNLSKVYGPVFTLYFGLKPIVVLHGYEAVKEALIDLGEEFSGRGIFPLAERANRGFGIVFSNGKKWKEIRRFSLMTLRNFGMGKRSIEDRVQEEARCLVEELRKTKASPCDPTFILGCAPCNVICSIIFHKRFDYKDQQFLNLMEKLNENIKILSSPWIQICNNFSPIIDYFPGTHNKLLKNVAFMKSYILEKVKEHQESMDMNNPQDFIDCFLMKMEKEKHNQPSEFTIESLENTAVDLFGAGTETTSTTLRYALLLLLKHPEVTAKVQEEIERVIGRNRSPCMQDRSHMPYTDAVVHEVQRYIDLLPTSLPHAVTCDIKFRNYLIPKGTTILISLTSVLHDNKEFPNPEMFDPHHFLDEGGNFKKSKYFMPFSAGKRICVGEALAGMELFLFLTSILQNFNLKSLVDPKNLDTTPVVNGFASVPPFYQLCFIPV

SMILES | inhibition at 10 µM (CYP2D6) [%] | inhibition at 10 µM (CYP2C8) [%] | inhibition at 10 µM (CYP1A) [%] | inhibition at 10 µM (CYP2B6) [%] | inhibition at 10 µM (CYP2C19) [%] | inhibition at 10 µM (CYP3A4) [%] | inhibition at 10 µM (CYP3A4&5) [%] | inhibition at 10 µM (CYP2C9) [%] | half-life at 1 uM [1, 2] [min] | half-life at 1 uM [1, 3] [min]
CCCCOC(=O)NS(=O)(=O)c1sc(CC(C)C)cc1-c1ccc(Cn2ccnc2C)c(F)c1 [Example 2, Butyl (3-(3-fluoro-4-((2-methyl-1H-imidazol-1-yl)methyl)phenyl)-5-isobutylthiophen-2-yl)sulfonylcarbamate trifluoroacetic acid] | 22 | 80 | 19 | 41 | 55 | -15 | 21 | 70 |  | 
Cc1nccn1Cc1ccc(-c2cc(CC(C)C)sc2S(=O)(=O)NC(=O)OCCO)cc1F.O=C(O)C(F)(F)F [Example 4, 2-Hydroxyethyl (3-(3-fluoro-4-((2-methyl-1H-imidazol-1-yl)methyl)phenyl)-5-isobutyl-thiophen-2-yl)sulfonylcarbamate trifluoroacetic acid] | 54 | 54 | 27 | 55 | 31 | -66 | 22 | 58 | > 60 | > 60
CCc1nccn1Cc1ccc(-c2cc(CC(C)C)sc2S(=O)(=O)NC(=O)OCCC(F)(F)F)cc1F.O=C(O)C(F)(F)F [Example 5, 3,3,3-Trifluoropropyl (3-(4-((2-ethyl-1H-imidazol-1-yl)methyl)-3-fluorophenyl)-5-iso-butyl-thiophen-2-yl)sulfonylcarbamate trifluoroacetic acid] | 49 | 64 | 35 | 37 | 63 | -24 | 5 | 71 | 18 | 55
CC(C)Cc1cc(-c2ccc(Cn3ccnc3C(C)(C)C)c(F)c2)c(S(=O)(=O)NC(=O)OCCO)s1 [Example 17, 2-Hydroxyethyl (3-(4-((2-(tert-butyl)-1H-imidazol-1-yl)methyl)-3-fluorophenyl)-5-isobutylthiophen-2-yl)sulfonylcarbamate] | 73.4 | 78.6 | 29.9 | 33.8 | 53.1 | -20.6 | 3.7 | 36.8 |  | 
COC(=O)NS(=O)(=O)c1sc(CC(C)C)cc1-c1ccc(Cn2ccnc2C(C)(C)C)c(F)c1 [Example 20, Methyl (3-(4-((2-(tert-butyl)-1H-imidazol-1-yl)methyl)-3-fluorophenyl)-5-isobutylthiophen-2-yl)sulfonylcarbamate] | 22.3 | 90.5 | 46 | 32.6 | 45.6 | -56.9 | -4.8 | 57.9 |  | 
COC(=O)NS(=O)(=O)c1sc(CC(C)C)cc1-c1ccc(Cn2ccnc2C)c(F)c1 [Example 21, Methyl (3-(3-fluoro-4-((2-methyl-1H-imidazol-1-yl)methyl)phenyl)-5-isobutyl-thio-phen-2-yl)sulfonylcarbamate] | 16.3 | 44.2 | 58.7 | 16.6 | 13.8 | -48 | 8 | 51.4 | > 60 | > 60
Cc1nccn1Cc1ccc(-c2cc(CC(C)C)sc2S(=O)(=O)NC(=O)C(C)(C)C)cc1F [Example 22, N-((3-(3-Fluoro-4-((2-methyl-1H-imidazol-1-yl)methyl)phenyl)-5-isobutylthiophen-2-yl)sulfonyl)pivalamide] | 18.9 | 53.9 | -15.3 | 1.6 | 45.9 | 51.7 | 23.8 | 23.3 | 29 | 44
CC(C)Cc1cc(-c2ccc(Cn3ccnc3C(C)(C)C)c(F)c2)c(S(=O)(=O)NC(=O)OCC(C)(C)O)s1 [Example 23, 2-Hydroxy-2-methylpropyl (3-(4-((2-(tert-butyl)-1H-imidazol-1-yl)methyl)-3-fluoro-Phenyl)-5-isobutylthiophen-2-yl)sulfonylcarbamate] | 5.8 | 74.7 | 16.7 | 16.8 | 51.2 | -14.1 | 12.5 | 47 |  | 
CCc1nccn1Cc1ccc(-c2cc(CC(C)C)sc2S(=O)(=O)NC(=O)OCCO)cc1F [Example 24, 2-Hydroxyethyl (3-(4-((2-ethyl-1H-imidazol-1-yl)methyl)-3-fluorophenyl)-5-isobutyl-thiophen-2-yl)sulfonylcarbamate] |  |  |  |  |  |  |  |  | > 60 | > 60
CCc1nccn1Cc1ccc(-c2cc(CC(C)C)sc2S(=O)(=O)NC(=O)OC)cc1F [Example 25, Methyl (3-(4-((2-ethyl-1H-imidazol-1-yl)methyl)-3-fluorophenyl)-5-isobutylthiophen-2-yl)sulfonylcarbamate] | 17.1 | 21.9 | 23.5 | 20 | 0.5 | -28.7 | 26.6 | 50.4 | > 60 | > 60
